Assays:
human c-Mpl = target: T1, human c-Mpl (Homo sapiens, UniProt P40238); experiment: effect on TPO binding to human c-Mpl using human platelets; conditions: concentrations up to 100 microM
T1 construct: endogenous in cells; host or cells: human platelets
T1 sequence (P40238 26-635): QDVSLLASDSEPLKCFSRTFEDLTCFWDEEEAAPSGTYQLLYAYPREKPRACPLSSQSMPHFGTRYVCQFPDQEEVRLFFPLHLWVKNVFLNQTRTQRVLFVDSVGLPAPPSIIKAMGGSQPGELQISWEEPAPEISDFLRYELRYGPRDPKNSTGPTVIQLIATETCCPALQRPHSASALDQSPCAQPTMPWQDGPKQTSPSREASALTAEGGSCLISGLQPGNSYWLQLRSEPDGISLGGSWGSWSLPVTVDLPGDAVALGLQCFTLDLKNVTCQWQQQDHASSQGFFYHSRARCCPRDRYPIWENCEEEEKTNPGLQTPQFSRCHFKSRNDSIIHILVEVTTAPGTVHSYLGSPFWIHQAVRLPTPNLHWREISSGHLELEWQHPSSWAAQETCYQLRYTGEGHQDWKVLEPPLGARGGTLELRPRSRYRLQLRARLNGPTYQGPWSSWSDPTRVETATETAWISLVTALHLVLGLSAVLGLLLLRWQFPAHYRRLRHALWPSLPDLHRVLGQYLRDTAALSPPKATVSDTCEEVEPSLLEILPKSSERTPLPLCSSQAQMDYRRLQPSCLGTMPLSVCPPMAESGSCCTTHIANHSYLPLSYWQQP

[1] = tested on: human cord blood CD34+ cells; experiment: megakaryocyte colony formation of human cord blood CD34+ cells; assay type: cell-based; conditions: read-out: induction of megakaryocyte colony formation, EC50
Ba/F3 cell = Ba/F3 cell growth (c-Mpl dependence control); assay type: cell-based; conditions: Ba/F3 cells without c-Mpl
[2] = target: T2, human receptor (c-Mpl)-expressing Ba/F3 cells (Homo sapiens, UniProt P40238); experiment: proliferation of human c-Mpl-expressing Ba/F3 cells (c-Mpl-Ba/F3 cells); assay type: cell-based; conditions: read-out: proliferation in a c-Mpl-dependent manner, EC50
T2 construct: expressed in transfected cells; host or cells: Ba/F3 cells
T2 sequence (P40238 26-635): T1 sequence (P40238 26-635)
From the text: Thrombopoietin (TPO) is a 332 amino acid cytokine that is the principal physiologic regulator of platelet production. Using a high-throughput growth assay based on the proliferation of human receptor (c-Mpl)-expressing Ba/F3 cells (c-Mpl-Ba/F3 cells), the screening of a library led to the identification of a novel series of c-Mpl agonists.

[3] = tested on: G-CSF-mobilized human peripheral blood CD34+ cells; experiment: degree of polyploidy of G-CSF-mobilized human peripheral blood CD34+ cells after 12 days incubation; assay type: cell-based; conditions: compared with rhTPO-treated cells
[4] = tested on: Platelets of other species; experiment: signaling responses in platelets of other species (anti-phospho-STAT5 immunoblot); assay type: cell-based; conditions: baboon, rhesus, cynomolgus, squirrel monkey, marmoset, beagle dog, guinea pig, rabbit, hamster, rat, mouse platelets
[5] = tested on: G-CSF-mobilized human peripheral blood CD34+ cells; experiment: differentiation of human CD34+ cells into megakaryocytes, serum-free liquid culture, flow cytometry; assay type: cell-based; conditions: day 14
Description: G-SCF-mobilized human peripheral blood CD34+ cells were cultured with a combination of FORMULA X and TPO, FORMULA X, or rhTPO in a serum-free liquid culture system. The numbers of CD34+CD41− cells (hematopoietic progenitor cells), CD34+CD41+ cells (megakaryocytic progenitor cells), and CD34−CD41+ cells (megakaryocytes) were measured using flow cytometry.
For purposes of this study, the number of megakaryocytes (CD34−CD41+ cells) depicted in FIG. 1 were counted using flow cytometry. The data represents the mean±SE of 5 independent experiments. *: p<0.05, ***p<0.001 compared with 3 nM TPO using Dunnett's test.
The number of hematopoietic progenitor cells ([…]) and megakaryocytic progenitor cells (CD34+CD41+ cells: b) depicted in FIGS. 2 and 3, respectively, were counted using flow cytometry, then compared with 3 nM TPO using Dunnett's test.
On the indicated days, the numbers of hematopoietic progenitor cells ([…]), megakaryocytic progenitor cells (CD34+CD41+ cells: b), and megakaryocytes (CD34−CD41+ cells: c) depicted in FIGS. 4, 5, and 6 were counted using flow cytometry on indicated days. The data represent the mean±SE of 5 independent experiments. *: p<0.05, **p<0.01, ***p<0.001 compared with 3 nM TPO using Dunnett's tests.

murine platelets = experiment: murine platelet count in human platelet-producing NOD/SCID mice; assay type: in vivo; conditions: during the study period
Description: (§1) In this study, we used commercially available cryopreserved human fetal liver CD34+ cells as a source of human hematopoietic stem cells. The cells were transplanted into sublethally irradiated (240 cGy) NOD/SCID mice. Human platelets started to appear in peripheral blood of these mice 4 weeks after transplantation. The production of human platelets continued up to six months post-transplant. Various doses of FORMULA X (0, 0.3, and 3 mg/kg/day) were orally administered for 14 days to NOD/SCID mice that had been confirmed to produce human platelets stably.
The increase in the human platelet count reached about 2.7-fold at 1 mg/kg/day and about 3.0-fold at 3 mg/kg/day on day 14.

chimpanzee platelets = experiment: activation of signaling pathways in platelets (anti-phospho-STAT5 immunoblot), chimpanzee; assay type: cell-based
human platelets [6] = experiment: platelet-increasing effect in human platelet-producing NOD/SCID mice; assay type: in vivo; conditions: for increase in the human platelet count: day 14
From the text: Non-obese diabetic/severe combined immunodeficiency (NOD/SCID) mice were characterized as an efficient engraftment model for human hematopoietic stem cells, as this model results in the production of human platelets. In this way, we examined the in vivo platelet-increasing effect of FORMULA X in human platelet-producing NOD/SCID mice in which human hematopoietic stem cells were transplanted.
as §1, with “Various doses of FORMULA X (0, 0.3, and 3 mg/kg/day) were orally administered for 14 days to NOD/SCID mice that had been confirmed to produce human platelets stably.” left out

human platelets [7] = experiment: activation of signaling pathways in platelets (anti-phospho-STAT5 immunoblot), human; assay type: cell-based

Row | influence on rhTPO binding to human c-Mpl (human c-Mpl) | EC50 [1] [nM] | EC50 [2] [nM] | Compound | effect on Ba/F3 cell growth (Ba/F3 cell) | ploidy level of cells [3] | signaling responses in platelets (anti-phospho-STAT5 immunoblot) [4] | number of megakaryocytes (CD34-CD41+ cells) ([5]; agent alone (FIG. 1)) | number of megakaryocytes (CD34-CD41+ cells) ([5]; in the presence of 3 nM TPO (FIG. 1)) | number of murine platelets (murine platelets) | activation of signaling pathways in platelets (chimpanzee platelets) | increase in the human platelet count (human platelets [6]; 1 mg/kg/day oral) | increase in the human platelet count (human platelets [6]; 3 mg/kg/day oral) | human platelet count after withdrawal of administration (human platelets [6]; after withdrawal) | number of human platelets (human platelets [6]; oral administration for 14 days, significance at 1 mg/kg/day and above) | activation of signaling pathways in platelets (human platelets [7])
1 | did not influence | 25 | 3.3 | O=C(Nc1nc(-c2cc(Cl)cs2)c(N2CCN(C3CCCCC3)CC2)s1)c1cnc(N2CCC(C(=O)O)CC2)c(Cl)c1 [FORMULA X] | no effect | not different from that of cells treated with rhTPO | no signaling responses | increased the number of megakaryocytes in a dose-dependent fashion | dose-dependently increased | did not change | occurred only in human and chimpanzee platelets | about 2.7 fold | about 3.0 fold | return to the pretreatment level | dose-dependently increased | occurred only in human and chimpanzee platelets
2 |  |  |  | TPO: 332 amino acid cytokine that is the principal physiologic regulator of platelet production |  |  | showed signaling responses | increased the number of megakaryocytes in a dose-dependent fashion |  |  |  |  |  |  |  | 
